According to patent US20260209214A1, “LSD1 MODULATORS” (RECURSION PHARMACEUTICALS, INC., priority 2022, published 2026):

These compounds were tested against Recombinant human LSD1 (Homo sapiens, UniProt O60341) (assay: LSD1 inhibition assay (HTRF LSD1 Histone H3K4 mono-demethylation assay, me1->me0)). Conditions: 20 nM recombinant human LSD1, 95 nM H3K4(me1) biotinylated peptide, 15 min preincubation, 60 min at 25° C., read-out: LSD1 inhibition IC50 (nM range).
Type: biochemical
Procedure, shortened: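 Recombinant human LSD1 (20 nM) pre-incubated 15 min with 10 semi-log compound doses, then 95 nM biotinylated H3K4me1 peptide for 60 min at 25 °C in pH 8.5 Tris/NaCl buffer with 10 μM FAD, 1 mM DTT. HTRF me0-antibody read after 90 min; IC50 from 4-parameter fit.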

Row | IC50 [nM] | SMILES
1 | 25 to 100 | Cn1ncc2cc(-c3ccc(CC4CNCCO4)cc3-c3ccc(C#N)c(F)c3)cnc21 (centres unmarked) [Example 56, 3-fluoro-2′-{1-methyl-1H-pyrazolo[3,4-b]pyridin-5-yl}-5′-[(morpholin-2-yl)methyl]-[1,1′-biphenyl]-4-carbonitrile]
2 | < 10 | COCC1CCN(c2ccc(CN3C[C@]4(N)CC[C@H]3C4)cc2-c2ccc(C#N)c(F)c2)CC1 [Example 216, 5'-{[(1S,4S)-4-amino-2-azabicyclo[2.2.1]heptan-2-yl]methyl}-3-fluoro-2'-[4-(methoxymethyl)piperidin-1-yl]-[1,1'-biphenyl]-4-carbonitrile]
3 | 100 to 1000 | N#Cc1ccc(-c2cccc(CN3CC4CNC(C4)C3)c2Cl)cc1F (centres unmarked) [Example 284, 2'-chloro-3'-({3,6-diazabicyclo[3.2.1]octan-3-yl}methyl)-3-fluoro-[1,1'-biphenyl]-4-carbonitrile]
4 | 10 to 25 | N#Cc1ccc(-c2cccc(C[C@@H]3CNCCO3)c2-c2ccno2)cc1F (single isomer, unassigned) [Example 13]
5 | 25 to 100 | Cc1nocc1-c1c(CC2CNCCO2)cccc1-c1ccc(C#N)c(F)c1 (centres unmarked) [Example 35, 3-fluoro-2′-(3-methyl-1,2-oxazol-4-yl)-3′-[(morpholin-2-yl)methyl]-[1,1′-biphenyl]-4-carbonitrile]
6 | 100 to 1000 | N#Cc1ccc(-c2cccc(CN3CCCC4(CCN4)C3)c2C2CC2)cc1F (centres unmarked) [Example 267, 2'-cyclopropyl-3'-({1,6-diazaspiro[3.5]nonan-6-yl}methyl)-3-fluoro-[1,1'-biphenyl]-4-carbonitrile]
7 | 100 to 1000 | N#Cc1ccc(-c2cccc(CN3C[C@H](N)C[C@H](F)C3)c2Cl)cc1F [Example 285, 3'-{[(3R,5S)-3-amino-5-fluoropiperidin-1-yl]methyl}-2'-chloro-3-fluoro-[1,1'-biphenyl]-4-carbonitrile]
8 | > 1000 | COC1CN(c2ccc(CC3CNCCO3)cc2-c2ccc(C#N)c(F)c2)C1 (centres unmarked) [Example 140, 3-fluoro-2′-(3-methoxyazetidin-1-yl)-5′-[(morpholin-2-yl)methyl]-[1,1′-biphenyl]-4-carbonitrile]
9 | 25 to 100 | N#Cc1ccc(-c2cc(CC3CNCCO3)ccc2-c2ccc(N3CCCC3)nc2)cc1F (centres unmarked) [Example 93, 3-fluoro-5′-[(morpholin-2-yl)methyl]-2′-[6-(pyrrolidin-1-yl)pyridin-3-yl]-[1,1′-biphenyl]-4-carbonitrile]
10 | 10 to 25 | CNC1CCN(c2cccc(-c3ccc(C#N)c(F)c3)c2-c2cncs2)CC1 [Example 116, 3-fluoro-3'-[4-(methylamino)piperidin-1-yl]-2'-(1,3-thiazol-5-yl)-[1,1'-biphenyl]-4-carbonitrile]
11 | 100 to 1000 | N#Cc1ccc(-c2cc(CC3CNCCO3)ccc2N2CC(CO)C2)cc1F (centres unmarked) [Example 137, 3-fluoro-2′-[3-(hydroxymethyl)azetidin-1-yl]-5′-[(morpholin-2-yl)methyl]-[1,1′-biphenyl]-4-carbonitrile]
12 | 10 to 25 | N#Cc1ccc(-c2cccc(C[C@@H]3CNCCO3)c2-c2ccns2)cc1 (single isomer, unassigned) [Example 11]
13 | 100 to 1000 | CNC1CCN(c2cccc(-c3ccc(C#N)c(F)c3)c2C2CC2)CC1 [Example 125, 2'-cyclopropyl-3-fluoro-3'-[4-(methylamino)piperidin-1-yl]-[1,1'-biphenyl]-4-carbonitrile]
14 | 25 to 100 | CC(C)(O)Cc1ccc(-c2ccc(CC3CNCCO3)cc2-c2ccc(C#N)c(F)c2)c(F)c1 (centres unmarked) [Example 104, 3-fluoro-2′-[2-fluoro-4-(2-hydroxy-2-methylpropyl)phenyl]-5′-[(morpholin-2-yl)methyl]-[1,1′-biphenyl]-4-carbonitrile]
15 | 10 to 25 | N#Cc1ccc(-c2cccc(C[C@@H]3CNCCO3)c2-c2ccno2)cc1 (single isomer, unassigned) [Example 7]
16 | > 1000 | N#Cc1ccc(-c2cccc(CC3CNCCO3)c2-c2ncco2)cc1F (centres unmarked) [Example 65, 3-fluoro-3′-[(morpholin-2-yl)methyl]-2′-(1,3-oxazol-2-yl)-[1,1′-biphenyl]-4-carbonitrile]
17 | 100 to 1000 | Cn1cc2cc(-c3ccc(CC4CNCCO4)cc3-c3ccc(C#N)c(F)c3)ccc2n1 (centres unmarked) [Compound 58]
18 | 100 to 1000 | Cc1sncc1-c1c(CC2CNCCO2)cccc1-c1ccc(C#N)c(F)c1 [Example 113, (2R,3R)-2,3-dihydroxybutanedioic acid; 2-fluoro-4-[2-(5-methylisothiazol-4-yl)-3-(morpholin-2-ylmethyl)phenyl]benzonitrile]
19 | 10 to 25 | N#Cc1ccc(-c2cccc(C[C@H]3CNCCO3)c2-c2cncs2)cc1F (single isomer, unassigned) [Example 30]
20 | 100 to 1000 | CC(C)(C)N1CCN(c2ccc(CC3CNCCO3)cc2-c2ccc(C#N)c(F)c2)CC1 (centres unmarked) [Example 149, 2′-(4-tert-butylpiperazin-1-yl)-3-fluoro-5′-[(morpholin-2-yl)methyl]-[1,1′-biphenyl]-4-carbonitrile]
21 | > 1000 | CC1(N)CCCN(Cc2cccc(-c3ccc(C#N)c(F)c3)c2Cl)C1 (centres unmarked) [Example 286, 3'-[(3-amino-3-methylpiperidin-1-yl)methyl]-2'-chloro-3-fluoro-[1,1'-biphenyl]-4-carbonitrile]
22 | 100 to 1000 | CN(C[C@H]1CCCOC1)c1ccc(CC2CNCCO2)cc1-c1ccc(C#N)c(F)c1 (stereo partly drawn) [Example 120, 3-fluoro-2′-[methyl({[(3R)-oxan-3-yl]methyl})amino]-5′-[(morpholin-2-yl)methyl]-[1,1′-biphenyl]-4-carbonitrile]

Row | SMILES | IC50 [nM]
23 | CCCc1c(CN2[C@H]3CC[C@@H]2[C@H](N)C3)cccc1-c1ccc(C#N)c(F)c1 (single isomer, unassigned) [Example 212] | 25 to 100
24 | Cc1c(CN2[C@@H]3CC[C@H]2[C@@H](N)C3)cccc1-c1ccc(C#N)c(F)c1 (racemic) [Example 306, 3'-{[(1S,2S,4R)-2-amino-7-azabicyclo[2.2.1]heptan-7-yl]methyl}-3-fluoro-2'-methyl-[1,1'-biphenyl]-4-carbonitrile] | 100 to 1000
25 | CC(C)Oc1c(CN2[C@@H]3CC[C@H]2[C@@H](N)C3)cccc1-c1ccc(C#N)c(F)c1 (racemic) [Example 213] | 25 to 100
26 | CC(C)c1c(CN2[C@@H]3CC[C@H]2[C@@H](N)C3)cccc1-c1ccc(C#N)c(F)c1 (racemic) [Example 220, 3'-{[(1S,2S,4R)-2-amino-7-azabicyclo[2.2.1]heptan-7-yl]methyl}-3-fluoro-2'-(propan-2-yl)-[1,1'-biphenyl]-4-carbonitrile] | 25 to 100
27 | COC1CCN(c2ccc(CN3[C@@H]4CC[C@H]3[C@@H](N)C4)cc2-c2ccc(C#N)c(F)c2)CC1 (racemic) [Example 260, 5'-{[(1S,2S,4R)-2-amino-7-azabicyclo[2.2.1]heptan-7-yl]methyl}-3-fluoro-2'-(4-methoxypiperidin-1-yl)-[1,1'-biphenyl]-4-carbonitrile] | 10 to 25
28 | CN[C@@H]1C[C@@H]2CC[C@H]1N2Cc1cccc(-c2ccc(C#N)c(F)c2)c1-c1ccns1 (single isomer, unassigned) [Example 190] | < 10

Same assay, conditions: LSD1 inhibition IC50 (nM range), 20 nM recombinant human LSD1, 95 nM H3K4(me1) biotinylated peptide, 15 min preincubation, 60 min at 25° C.

Row | SMILES | IC50 [nM]
29 | CN1CC2(C1)CN(Cc1cccc(-c3ccc(C#N)c(F)c3)c1Cl)C2 [Example 214, CN1CC2(C1)CN(Cc3cccc(c3Cl)c4ccc(C#N)c(F)c4)C2] | > 1000
